Assay results as given in PMC5065237, “Investigation into the Mode of Phosphate Activation in the 4-Hydroxy-4-Methyl-2-Oxoglutarate/4-Carboxy-4-Hydroxy-2-Oxoadipate Aldolase from Pseudomonas putida F1” (PLoS ONE, 2016).

Experiments:
HMG/CHA aldolase [1] = biological target: T1, HMG/CHA aldolase (Pseudomonas putida, UniProt A5W059); assay: aldol cleavage, LDH-coupled NADH oxidation at […] nm; assay type: biochemical; settings: substrate inhibition constant, 1 mM MgCl2, 0.1 M HEPES pH 8.0, 25 °C, racemic substrate
T1 construct: gene Pput_1361; recombinant from pT7-7, expressed in E. coli; chelex-treated apo-enzyme reconstituted with MgCl2

HMG/CHA aldolase [2] = biological target: T1, HMG/CHA aldolase; assay: decarboxylation, LDH-coupled NADH oxidation at […] nm; assay type: biochemical; settings: substrate inhibition constant, 1 mM MgCl2, 0.1 M HEPES pH 8.0, 25 °C

T1 sequence (A5W059 whole entry): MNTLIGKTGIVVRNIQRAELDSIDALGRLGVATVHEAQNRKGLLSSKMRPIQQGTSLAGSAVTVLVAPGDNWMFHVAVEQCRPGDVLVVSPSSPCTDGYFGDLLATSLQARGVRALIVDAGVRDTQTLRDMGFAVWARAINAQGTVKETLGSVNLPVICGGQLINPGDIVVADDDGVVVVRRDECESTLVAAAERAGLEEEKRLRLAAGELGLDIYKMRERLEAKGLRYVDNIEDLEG

| SMILES | Without Pi / Ksi (HMG/CHA aldolase [1]) [mM] | Without Pi / Ksi (HMG/CHA aldolase [2]) [mM] |
| --- | --- | --- |
| CC(O)(CC(=O)C(=O)O)C(=O)O (racemic) [HMG] | 1.80 ± 0.091 | – |
| O=C(O)CC(=O)C(=O)O [OAA] | – | 0.360 ± 0.049 |
